For 25 compounds, IC50 results are on record in patent US10519177B2, “Heterocyclic compounds and uses thereof” (Plexxikon Inc., priority 2013, dated 2019).

The IC50 is the point on the concentration scale where inhibition reaches its midpoint.

Test [1] addresses BRD4-BD12 (1-477) (Homo sapiens (Human), UniProt O60885). The experiment in a line: Alphascreen binding assay BRD4-BD12. Particulars: BRD4(1 2) H4; read-out: Biochemical activity (IC50 μM) BRD4(1 2) H4. Summed up: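 In this competition format, compounds displace a biotinylated tetra-acetyl H4 peptide from E. coli-expressed human BRD4 bromodomain constructs captured on nickel chelate beads. The reaction runs at pH 7.5 with 2 mM DTT and detergent for 1 h at room temperature before a 30 min bead step.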

In test [2] the test system is MV-4-11 cells. The experiment in a line: Oncology cell growth assay MV-4-11 (CellTiter Glo). In kind it is cell-based. Particulars: Homo sapiens, MV4-11, 72 h; MV-4-11, 3d growth; read-out: Cell activity (IC50 μM) MV-4-11 3d-Growth. Summed up:
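Growth read by CellTiter Glo luminescence after 72 h compound treatment of MLL-AF4-bearing MV-4-11 cells (3000/well). Titration: 8 points, 1:3 steps, maximum 10 μM, 0.2% DMSO final. Data normalized to DMSO wells, four-parameter fit gives pIC50.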
(In general: ATP-based viability assays read luminescence as a measure of living cells.)

Test [3] deals with bromodomain. The experiment in a line: at least one of the bromodomain cell assays of Example 57. Particulars: at least one of the bromodomain cell assays described in Example 57; read-out: IC50 in at least one of the bromodomain cell assays. In kind it is cell-based.

In the case of `Cc1noc(C)c1-c1cnc2c(-c3ccc(O)cc3)cn(CC3(F)CCCCC3)c2c1` [P-0523, 4-[6-(3,5-dimethylisoxazol-4-yl)-1-[(1-fluorocyclohexyl)methyl]pyrrolo[3,2-b]pyridin-3-yl]phenol], the values for the IC50 in test [1], in test [2] and in test [3] were below 1 µM, below 1 µM and below 10 µM, respectively.
`Cc1noc(C)c1-c1cnc2c(-c3ccc(O)c(Cl)c3)cn(CC3(F)CCCCC3)c2c1` [P-0524]: the IC50 in test [1] is below 1 µM; in test [2], below 1 µM; in test [3] it was below 10 µM.
On to `Cc1ccc(-c2cn(CC3(F)CCCCC3)c3cc(-c4c(C)noc4C)cnc23)cc1C(=O)O` [P-0525, 5-[6-(3,5-dimethylisoxazol-4-yl)-1-[(1-fluorocyclohexyl)methyl]pyrrolo[3,2-b]pyridin-3-yl]-2-methyl-benzoic acid], for which the IC50 was below 1 µM in test [1], below 1 µM in test [2] and below 10 µM in test [3].
Turning to `Cc1noc(C)c1-c1cnc2c(-c3ccc(C(=O)OC(C)(C)C)cc3)cn(C(CC#N)C3CCCC3)c2c1` (stereo not drawn) [P-0526, tert-butyl 4-[1-(2-cyano-1-cyclopentyl-ethyl)-6-(3,5-dimethylisoxazol-4-yl)pyrrolo[3,2-b]pyridin-3-yl]benzoate], the IC50 in test [1] is below 1 µM; in test [2] it was below 1 µM; in test [3] it was below 10 µM.
With `Cc1noc(C)c1-c1cnc2c(-c3ccc(C(=O)O)cc3)cn(C(CC#N)C3CCCC3)c2c1` (stereo not drawn) [P-0527, 4-[1-(2-cyano-1-cyclopentyl-ethyl)-6-(3,5-dimethylisoxazol-4-yl)pyrrolo[3,2-b]pyridin-3-yl]benzoic acid], the IC50 in test [1] is below 1 µM; in test [2], below 1 µM; in test [3], below 10 µM.
Consider `Cc1noc(C)c1-c1cnc2c(I)cn(Cc3cccnn3)c2c1` [P-0528, 4-[3-iodo-1-(pyridazin-3-ylmethyl)pyrrolo[3,2-b]pyridin-6-yl]-3,5-dimethyl-isoxazole], for which the results for the IC50 in test [1], in test [2] and in test [3] were below 1 µM, below 1 µM and below 10 µM, respectively.
`COC(=O)CCc1ccc(-c2cn(CC3CCC(F)(F)CC3)c3cc(-c4c(C)noc4C)cnc23)cc1` [P-0529, methyl 3-[4-[1-[(4,4-difluorocyclohexyl)methyl]-6-(3,5-dimethylisoxazol-4-yl)pyrrolo[3,2-b]pyridin-3-yl]phenyl]propanoate]: the IC50 in test [1] is below 1 µM; in test [2] it was below 1 µM; in test [3], below 10 µM.
Take `Cc1noc(C)c1-c1cnc2c(-c3ccc(CCC(=O)O)cc3)cn(CC3CCC(F)(F)CC3)c2c1` [P-0530, 3-[4-[1-[(4,4-difluorocyclohexyl)methyl]-6-(3,5-dimethylisoxazol-4-yl)pyrrolo[3,2-b]pyridin-3-yl]phenyl]propanoic acid]: the IC50 in test [1] is below 1 µM; in test [2] it was below 1 µM; in test [3] it was below 10 µM.
Turning to `Cc1noc(C)c1-c1cnc2c(-c3cnn(CC(F)(F)F)c3)cn(Cc3cccnn3)c2c1` [P-0531, 3,5-dimethyl-4-[1-(pyridazin-3-ylmethyl)-3-[1-(2,2,2-trifluoroethyl)pyrazin-4-yl]pyrrolo[3,2-b]pyridin-6-yl]isoxazole], the values for the IC50 in test [1], in test [2] and in test [3] were below 1 µM, below 1 µM and below 10 µM, respectively.
For the compound `CNC(=O)c1ccc(-n2cc(CC3CCC(F)(F)CC3)c3cc(-c4c(C)noc4C)cnc32)nc1` [P-0532, 6-[3-[(4,4-difluorocyclohexyl)methyl]-5-(3,5-dimethylisoxazol-4-yl)pyrrolo[2,3-b]pyridin-1-yl]-N-methyl-pyridine-3-carboxamide], the IC50 was below 1 µM in test [1], below 1 µM in test [2] and below 10 µM in test [3].
Take `Cc1noc(C)c1-c1cnc2c(c1)c(CC1CCC(F)(F)CC1)cn2-c1ccc(C(=O)NC2CC2)cn1` [P-0533, N-cyclopropyl-6-[3-[(4,4-difluorocyclohexyl)methyl]-5-(3,5-dimethylisoxazol-4-yl)pyrrolo[2,3-b]pyridin-1-yl]pyridine-3-carboxamide]: the IC50 is below 1 µM in test [1], below 1 µM in test [2] and below 10 µM in test [3].
Consider `CCOC(=O)c1ccc(-c2cn(CC3CCC(F)(F)CC3)c3cc(-c4c(C)noc4C)cnc23)cc1Cl` [P-0534, ethyl 2-chloro-4-[1-[(4,4-difluorocyclohexyl)methyl]-6-(3,5-dimethylisoxazol-4-yl)pyrrolo[3,2-b]pyridin-3-yl]benzoate], for which the IC50 in test [1] was below 1 µM; in test [2], 1 to 10 µM; in test [3], below 10 µM.
In the same order, the values of `Cc1noc(C)c1-c1cnc2c(-c3ccc(C(=O)O)c(Cl)c3)cn(CC3CCC(F)(F)CC3)c2c1` [P-0535, 2-chloro-4-[1-[(4,4-difluorocyclohexyl)methyl]-6-(3,5-dimethylisoxazol-4-yl)pyrrolo[3,2-b]pyridin-3-yl]benzoic acid] are below 1 µM, below 1 µM and below 10 µM.
In the same order, the values of `Cc1noc(C)c1-c1cnc2c(-c3ccc(C(=O)NC4CC4)nc3)cn(CC3CCC(F)(F)CC3)c2c1` [P-0536, N-cyclopropyl-5-[1-[(4,4-difluorocyclohexyl)methyl]-6-(3,5-dimethylisoxazol-4-yl)pyrrolo[3,2-b]pyridin-3-yl]pyridine-2-carboxamide] are below 1 µM, below 1 µM and below 10 µM.
Turning to `CCOC(=O)c1ccc(-c2cn(CC3CCC(F)(F)CC3)c3cc(-c4c(C)noc4C)cnc23)cc1` [P-0537, ethyl 4-[1-[(4,4-difluorocyclohexyl)methyl]-6-(3,5-dimethylisoxazol-4-yl)pyrrolo[3,2-b]pyridin-3-yl]benzoate], the IC50 in test [1] was below 1 µM; in test [2], below 1 µM; in test [3], below 10 µM.
With `[2H]C([2H])(C1CCC(F)(F)CC1)n1cc(-c2ccc(C(=O)OC)cc2)c2ncc(-c3c(C)noc3C)cc21` [P-0538, methyl 4-[1-[dideuterio-(4,4-difluorocyclohexyl)methyl]-6-(3,5-dimethylisoxazol-4-yl)pyrrolo[3,2-b]pyridin-3-yl]benzoate], the IC50 in test [1] was below 1 µM; in test [2], below 1 µM; in test [3], below 10 µM.
Take `COC(=O)c1ccc(-c2cn(Cc3cccnn3)c3cc(-c4c(C)noc4C)cnc23)cc1` [P-0539, methyl 4-[6-(3,5-dimethylisoxazol-4-yl)-1-(pyridazin-3-ylmethyl)pyrrolo[3,2-b]pyridin-3-yl]benzoate]: the figures for the IC50 in test [1], in test [2] and in test [3] were below 1 µM, below 1 µM and below 10 µM, respectively.
In the case of `Cc1noc(C)c1-c1cnc2c(-c3ccc(C(=O)O)cc3)cn(Cc3cccnn3)c2c1` [P-0540, 4-[6-(3,5-dimethylisoxazol-4-yl)-1-(pyridazin-3-ylmethyl)pyrrolo[3,2-b]pyridin-3-yl]benzoic acid], the IC50 is below 1 µM in test [1], below 1 µM in test [2] and below 10 µM in test [3].
Turning to `Cc1cc(-c2cnc3c(-c4cnn(CC(F)(F)F)c4)cn(CC4CCC(F)(F)CC4)c3c2)cn(C)c1=O` [P-0541, 5-[1-[(4,4-difluorocyclohexyl)methyl]-3-[1-(2,2,2-trifluoroethyl)pyrazol-4-yl]pyrrolo[3,2-b]pyridin-6-yl]-1,3-dimethyl-pyridin-2-one], the IC50 in test [1] was below 1 µM; in test [2], below 1 µM; in test [3], below 10 µM.
Consider `CCOC(=O)c1ccc(-c2cn([C@@H](C)c3ccccn3)c3cc(-c4c(C)noc4C)cnc23)cc1` [P-0542, ethyl 4-[6-(3,5-dimethylisoxazol-4-yl)-1-[(1S)-1-(2-pyridyl)ethyl]pyrrolo[3,2-b]pyridin-3-yl]benzoate], for which the results for the IC50 in test [1], in test [2] and in test [3] were below 1 µM, below 1 µM and below 10 µM, respectively.
Turning to `Cc1noc(C)c1-c1cnc2c(-c3ccc(C(=O)NC4CC4)nc3)cn([C@@H](C)c3ccccn3)c2c1` [P-0543, N-cyclopropyl-5-[6-(3,5-dimethylisoxazol-4-yl)-1-[(1S)-1-(2-pyridyl)ethyl]pyrrolo[3,2-b]pyridin-3-yl]pyridine-2-carboxamide], the IC50 in test [1] was below 1 µM; in test [2], below 1 µM; in test [3] it was below 10 µM.
As to `COC(=O)c1ccc(-n2cc(CC3CCC(F)(F)CC3)c3cc(-c4c(C)noc4C)cnc32)cc1` [P-0544, methyl 4-[3-[(4,4-difluorocyclohexyl)methyl]-5-(3,5-dimethylisoxazol-4-yl)pyrrolo[2,3-b]pyridin-1-yl]benzoate], the IC50 in test [1] was below 1 µM; in test [2], 1 to 10 µM; in test [3], below 10 µM.
In the same order, the values of `Cc1noc(C)c1-c1cnc2[nH]cc(C(O)(c3ccccn3)c3ccccn3)c2c1` [P-0545, [5-(3,5-dimethylisoxazol-4-yl)-1H-pyrrolo[2,3-b]pyridin-3-yl]-bis(2-pyridyl)methanol] are below 1 µM, below 1 µM and below 10 µM.
With `COC(=O)c1ccc(-c2cn(C(C)(C)c3ccccn3)c3cc(-c4c(C)noc4C)cnc23)cc1` [P-0547, methyl 4-[6-(3,5-dimethylisoxazol-4-yl)-1-[1-methyl-1-(2-pyridyl)ethyl]pyrrolo[3,2-b]pyridin-3-yl]benzoate], the values for the IC50 in test [1], in test [2] and in test [3] were below 1 µM, below 1 µM and below 10 µM, respectively.
As for `Cc1noc(C)c1-c1cnc2c(-c3ccc(C(=O)O)cc3)cn(C(C)(C)c3ccccn3)c2c1` [P-0548, 4-[6-(3,5-dimethylisoxazol-4-yl)-1-[1-methyl-1-(2-pyridyl)ethyl]pyrrolo[3,2-b]pyridin-3-yl]benzoic acid], the IC50 in test [1] was below 1 µM; in test [2] it was below 1 µM; in test [3] it was below 10 µM.
